Assay results from the supplement of paper PMC13380429.

Columns and labels:
Settings in all cases: 72 h
Calu-3 [1] = assay: cell viability relative to DMSO; higher = less toxic
Caco-2 [2] = assay: as above
HepG2 [3] = assay: as above
Vero E6 [4] = assay: as above
U2OS [5] = assay: as above
Calu-3 [6] = assay: relative viability EC50 (midpoint between 100% and the lowest measured viability); higher = less toxic
Caco-2 [7] = assay: as above
HepG2 [8] = assay: as above
Vero E6 [9] = assay: as above
U2OS [10] = assay: as above
Calu-3 [11] = assay: drug sensitivity score (DSS) for viability; higher = more toxic; extreme values may be limits of the assay
Caco-2 [12] = assay: as above
HepG2 [13] = assay: as above
Vero E6 [14] = assay: as above
U2OS [15] = assay: as above

Structure (SMILES)	cell viability (Calu-3 [1]; 1 nM)	cell viability (Calu-3 [1]; 10 nM)	cell viability (Calu-3 [1]; 100 nM)	cell viability (Calu-3 [1]; 1000 nM)	cell viability (Calu-3 [1]; 10000 nM)	cell viability (Caco-2 [2]; 1 nM)	cell viability (Caco-2 [2]; 10 nM)	cell viability (Caco-2 [2]; 100 nM)	cell viability (Caco-2 [2]; 1000 nM)	cell viability (Caco-2 [2]; 10000 nM)	cell viability (HepG2 [3]; 1 nM)	cell viability (HepG2 [3]; 10 nM)	cell viability (HepG2 [3]; 100 nM)	cell viability (HepG2 [3]; 1000 nM)	cell viability (HepG2 [3]; 10000 nM)	cell viability (Vero E6 [4]; 1 nM)	cell viability (Vero E6 [4]; 10 nM)	cell viability (Vero E6 [4]; 100 nM)	cell viability (Vero E6 [4]; 1000 nM)	cell viability (Vero E6 [4]; 10000 nM)	cell viability (U2OS [5]; 1 nM)	cell viability (U2OS [5]; 10 nM)	cell viability (U2OS [5]; 100 nM)	cell viability (U2OS [5]; 1000 nM)	cell viability (U2OS [5]; 10000 nM)	relative viability EC50 (Calu-3 [6])	relative viability EC50 (Caco-2 [7])	relative viability EC50 (HepG2 [8])	relative viability EC50 (Vero E6 [9])	relative viability EC50 (U2OS [10])	drug sensitivity score (Calu-3 [11])	drug sensitivity score (Caco-2 [12])	drug sensitivity score (HepG2 [13])	drug sensitivity score (Vero E6 [14])	drug sensitivity score (U2OS [15])
O=C(Nc1ccccc1)c1ccccc1O [salicylanilide]	107%	100%	102%	90.9%	111%	80%	101%	112%	102%	90.6%	102%	96.6%	94.4%	94.6%	75.6%	95.9%	98.4%	98.4%	100%	99.9%	95.9%	96.9%	97.1%	93.8%	97.5%	> 10 µM	> 10 µM	> 10 µM	> 10 µM	> 10 µM	0	0	1.6	0	0
Oc1cc2c(c(Cl)c1O)CCNCC2c1ccccc1 (stereo not given)	95.1%	106%	97.7%	106%	91.1%	99.2%	94.9%	85.4%	90.9%	95.5%	93.2%	100%	100%	103%	86.8%	104%	106%	103%	104%	98.6%	100%	97%	102%	97.8%	104%	> 10 µM	> 10 µM	> 10 µM	> 10 µM	> 10 µM	0	0	0.1	0	0
CC(C)(C)[C@]1(O)CC2OC(=O)CC23C(=O)OC2OC(=O)[C@H](O)C231 (stereo not given in full) [bilobalide]	101%	98.9%	109%	108%	116%	98%	97.6%	97.2%	107%	89.7%	95.1%	97.1%	104%	117%	108%	104%	104%	105%	96.6%	103%	94.7%	104%	94%	98.5%	97.7%	> 10 µM	> 10 µM	> 10 µM	> 10 µM	> 10 µM	0	0	0	0	0
C[S+](C)CC[C@H](N)C(=O)O [cabagin]	103%	84.8%	85.1%	86.3%	103%	90.6%	97.6%	109%	97.3%	99.6%	95.6%	99.5%	103%	102%	98.5%	92.1%	99.5%	85.3%	101%	108%	97.9%	92.3%	101%	94.7%	100%	> 10 µM	> 10 µM	> 10 µM	> 10 µM	> 10 µM	0	0	0	0	0
Cc1cnc(-c2ccccc2C(C)C)nc1NCc1ccc(-n2ccnn2)cc1 [ML323]	91.6%	108%	105%	97.3%	110%	90.2%	101%	92.2%	95.8%	81%	99.1%	94.2%	112%	96.5%	82.2%	89.6%	90%	87.6%	89.7%	99.4%	94.9%	103%	95.8%	102%	97.9%	> 10 µM	> 10 µM	> 10 µM	> 10 µM	> 10 µM	0	0.5	0.8	0	0
Cc1ncc([N+](=O)[O-])n1CCO [metronidazole]	97.3%	95.9%	109%	97%	102%	100%	94.4%	101%	94.9%	98.4%	97.7%	102%	111%	99.8%	105%	96.8%	99.7%	96.2%	93.5%	100%	104%	97.6%	98.9%	96.9%	98%	> 10 µM	> 10 µM	> 10 µM	> 10 µM	> 10 µM	0	0	0	0	0
COc1ccc2[nH]c(-c3ccccc3)c(CCNC(C)=O)c2c1 [2-phenylmelatonin]	96.5%	94.9%	99.3%	106%	102%	98.8%	105%	93%	98%	82.6%	104%	99.5%	101%	101%	105%	101%	99.9%	106%	98.8%	93.7%	102%	101%	97.6%	105%	98.1%	> 10 µM	> 10 µM	> 10 µM	> 10 µM	> 10 µM	0	0.6	0	0	0
FCc1ccc(OCCOc2ccc(Cl)cc2Cl)c(Cl)n1	101%	101%	101%	97.9%	92.4%	92.7%	92.8%	107%	90.5%	77%	94.8%	97.1%	98.9%	104%	86.3%	95.2%	105%	96.6%	103%	103%	100%	96.4%	102%	94.4%	92.7%	> 10 µM	> 10 µM	> 10 µM	> 10 µM	> 10 µM	0	1.9	0.1	0	0
Cc1c(S(=O)(=O)O)oc2c1C(=O)C(=O)c1c-2ccc2c1CCCC2(C)C [sodium-tanshinone-II-A-sulfonate]	90.2%	100%	101%	99.1%	98.6%	97.7%	96.3%	109%	93.2%	102%	106%	92.2%	116%	95.9%	107%	103%	100%	97.5%	84.5%	94.1%	96.4%	99.7%	91.1%	99.6%	94.6%	> 10 µM	> 10 µM	> 10 µM	> 10 µM	> 10 µM	0	0	0	1.8	0
COc1ccc(/C=C/C(=O)O)cc1 [trans-4-methoxycinnamic-acid]	103%	92.2%	108%	98%	98.8%	95.1%	99.6%	88.7%	100%	88.3%	106%	92%	100%	91.7%	96.3%	99.3%	102%	98.1%	103%	97.7%	101%	96.3%	102%	98.6%	97.5%	> 10 µM	> 10 µM	> 10 µM	> 10 µM	> 10 µM	0	0	0	0	0
CC(C)(C)c1cc(C(=O)/C(C#N)=N/Nc2cccc(Cl)c2)no1 [ESI-09]	103%	93.7%	91.9%	102%	95.9%	99.8%	96.1%	104%	96.6%	37%	109%	102%	102%	103%	31.2%	90%	94.2%	91%	99.3%	83.3%	98.1%	96.1%	98.4%	96.1%	87.6%	> 10 µM	2.75 µM	3.4 µM	> 10 µM	> 10 µM	0	3.9	3.5	0	0.2
NC(=O)NC(=O)Cc1ccccc1 [phenacemide]	102%	97.2%	101%	87.7%	104%	102%	94.4%	95.6%	100%	94.8%	96.4%	103%	95.5%	107%	102%	97.5%	101%	96.8%	99.7%	96.9%	104%	102%	102%	98.8%	97.6%	> 10 µM	> 10 µM	> 10 µM	> 10 µM	> 10 µM	0	0	0	0	0
O=C(c1cc(S(=O)(=O)Nc2ccccc2F)c(F)cc1Cl)N1CCN2CCC[C@@H]2C1 [ABT-639]	103%	104%	99.8%	106%	96.1%	95.2%	97.8%	98.9%	94.9%	104%	94.4%	106%	87.2%	105%	92.5%	102%	98.9%	97.8%	100%	100%	99.1%	97.4%	99%	95.1%	99.5%	> 10 µM	> 10 µM	> 10 µM	> 10 µM	> 10 µM	0	0	0	0	0
O=C(Nc1cnccc1Cl)N1CCN(Cc2ccc3c(c2)OC(F)(F)O3)CC1	92.4%	100%	95.2%	99%	92.8%	97.7%	101%	94%	90.3%	81%	95.6%	100%	100%	91.6%	39.3%	108%	103%	103%	100%	92.4%	99.8%	97.5%	99.1%	98.8%	94%	> 10 µM	> 10 µM	2.06 µM	> 10 µM	> 10 µM	0	1	4.7	0	0
